Experimental data reported in patent US6329189A, “Enzyme producing tartaric acid ether compound and process for producing tartaric acid ether compounds using this enzyme” (Kikkoman Corporation, priority 1998, dated 2001).

Legend:
[1] = tested on: enzyme producing tartaric acid ether compound; assay: Substrate specificity of the present enzyme in the presence of (±)-trans-epoxysuccinic acid; format: biochemical, Aspergillus oryzae
Procedure: The activities of the present enzyme to the various substrate compounds having a phenolic hydroxyl group(s) shown in Table 1 in the presence of (±)-trans-epoxysuccinic acid were measured and shown as relative activities (%) with reference to the activity to genistein which was expressed as 100. The measurement of activity was conducted under the same conditions as used for the determination of titer described later.
Enzyme titer was determined by the following method. The amount of the enzyme that produces 1 μmol of 2-hydroxy-3-[[5-hydroxy-3-(4-hydroxyphenyl)-4-oxo-4H-1-benzopyran-7-yl]oxy]-butanedioic acid in one minute in the reaction of the following formula (6) is expressed as 1 U. [drawing 1]
Substrate solution I: 60 mM (±)-trans-epoxysuccinic acid (Tokyo Kasei Kogyo Co., Ltd.) was dissolved in 100 ml of a 50 mM sodium acetate-acetic acid buffer (pH 6.0), and the solution was adjusted to pH 6.0 with sodium hydroxide.
Substrate solution II: Prepared by dissolving 0.3 mmol of genistein (Funakoshi Co., Ltd.) in 100 ml of dimethyl sulfoxide.
50 mmol of sodium acetate and 40 mmol of manganese sulfate were dissolved in distilled water, and the solution was adjusted to pH 6.0 with acetic acid and made one litre.
(1) 0.175 ml of the buffer, 0.1 ml of the substrate solution I and 0.01 ml of an enzyme solution were pipetted into a microtube, and the mixed solution was preincubated at 37° C. for 5 minutes.
(2) The above solution was mixed with 0.025 ml of the substrate solution II and reacted at 37° C. for 15 minutes, after which 0.01 ml of concentrated hydrochloric acid was added to stop the reaction. Used as control was a solution prepared in the same way as described above except that 0.01 ml of the buffer was added in place of 0.01 ml of the enzyme solution.
2-hydroxy-3-[[5-hydroxy-3-(4-hydroxyphenyl)-4-oxo-4H-1-benzopyran-7-yl]oxy]-butanedioic acid produced from the reaction of the formula (6) was determined by HPLC under the following conditions: […]
Column: Wakosil-II5C18HG (4.6 mm×30 mm+4.6 mm×250 mm, mfd. by Wako Pure Chemical Industries, Ltd.).
Eluent: distilled water containing 0.05% of trifluoroacetic acid and 28.8% of acetonitrile.
Detecting wavelengh: 260 nm.

[2] = tested on: enzyme producing tartaric acid ether compound; assay: Km value from Lineweaver-Burk's plot; format: biochemical, Aspergillus oryzae; details: compound used as substrate
[3] = target: T1, histidine decarboxylase (HDC) (Homo sapiens, UniProt P19113); details: from JP-A-9-110857 and JP-A-10-59956; cited from earlier work
T1 sequence (P19113 1-662): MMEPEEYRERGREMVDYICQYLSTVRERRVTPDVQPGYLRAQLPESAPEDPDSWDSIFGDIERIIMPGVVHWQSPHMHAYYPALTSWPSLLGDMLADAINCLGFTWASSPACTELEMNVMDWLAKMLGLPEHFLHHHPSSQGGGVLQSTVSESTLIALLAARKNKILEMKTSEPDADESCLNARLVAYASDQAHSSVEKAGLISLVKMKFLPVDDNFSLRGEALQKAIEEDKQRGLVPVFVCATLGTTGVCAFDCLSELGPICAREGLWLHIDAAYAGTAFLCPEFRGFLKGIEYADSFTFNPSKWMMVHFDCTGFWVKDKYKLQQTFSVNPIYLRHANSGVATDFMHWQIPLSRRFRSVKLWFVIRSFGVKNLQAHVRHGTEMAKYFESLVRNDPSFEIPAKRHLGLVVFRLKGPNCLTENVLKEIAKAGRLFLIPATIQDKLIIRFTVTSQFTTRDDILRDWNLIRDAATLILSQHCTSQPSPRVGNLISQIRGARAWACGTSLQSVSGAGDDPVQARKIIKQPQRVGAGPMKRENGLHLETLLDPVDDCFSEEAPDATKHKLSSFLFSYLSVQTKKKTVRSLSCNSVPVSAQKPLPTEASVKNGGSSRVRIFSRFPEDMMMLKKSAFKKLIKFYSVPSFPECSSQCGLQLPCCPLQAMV

Row | Structure (SMILES) | Action of the enzyme to the phenolic hydroxyl groups of the substrate (in words) ([1]; in the presence of (±)-trans-epoxysuccinic acid) | Relative activity (%) ([1]; substrate in the presence of (±)-trans-epoxysuccinic acid, decrement of genistein as substrate expressed as 100) | Km [2] [µM] | Inhibitory action against histidine decarboxylase (HDC) [3]
1 | O=c1c(-c2ccc(O)cc2)coc2cc(O)cc(O)c12 [genistein] | acts in a favorable way | 100 | 1040 | –
2 | O=C(O)[C@H]1O[C@@H]1C(=O)O (relative stereo) [(±)-trans-epoxysuccinic acid] | – | – | 2580 | –
3 | O=C(O)C(O)C(Oc1cc(O)c2c(=O)c(-c3ccc(O)cc3)coc2c1O)C(=O)O (single isomer, unassigned) [2-[[5,8-dihydroxy-3-(4-hydroxyphenyl)-4-oxo-4H-1-benzopyran-7-yl]oxy]-3-hydroxy-butanedioic acid] | – | – | – | prominent inhibitory action
